Laboratory results published in patent US9155695B2, “Injectable ropinirole compositions and methods for making and using same” (Medtronic, Inc., priority 2013, dated 2015).
Counter-ions that a name gives are not always drawn.

How the values were obtained:
site of infusion [1] = experiment: Toxicology, subcutaneous infusion site reaction; assay type: in vivo, rabbits and minipigs
Procedure: Toxicology was tested on rats, rabbits and minipigs. A sterilized injectable ropinirole composition at 15 mg/mL/day was administered to the rabbits and minipigs. Injection sites were administered 1 mL of infusate per day for 3 days and tissues collected immediately after cessation of delivery. […] A slight trend towards larger reactions with higher concentrations/doses of ropinirole relative to vehicle-treated sites was found but was concluded to be much less severe than apomorphine-induced inflammation at clinically relevant doses (FIGS. 12 and 13).

site of infusion [2] = experiment: Histopathology score of site reactions in the subcutis at the cannula tip; conditions: apomorphine, microscopic
[3] = Pharmacokinetics of injectable ropinirole administered subcutaneously, steady state plasma levels; assay type: in vivo; conditions: minipigs, subcutaneous, ropinirole 15 mg/ml terminally sterilized (Table A)
[4] = as above; assay type: in vivo; conditions: rats, subcutaneous, sterilized ropinirole HCl in sterile water for injection, no excipients
From the text: The rats were given sterilized ropinirole HCl in sterile water for injection, no excipients.

site of infusion [5] = conditions: in vivo

CN1CCc2cccc3c2[C@H]1Cc1ccc(O)c(O)c1-3 [apomorphine]
size of site reaction relative to 15 mg/mL/day ropinirole (site of infusion [1]; minipig, 10 mg/3 mL/day, 3 days infusion): approximately twice as large
inflammation score (site of infusion [2]): severe
necrosis score (site of infusion [2]): moderate

CCCN(CCC)CCc1cccc2c1CC(=O)N2 [ropinirole, 4-[2-(dipropylamino)ethyl]-1,3-dihydro-2H-indol2-one monohydrochloride]
steady state plasma levels versus dose [3]: approximate linear relationship to the dose administered
inflammation/necrosis at the site of infusion (site of infusion [1]; 15 mg/mL/day, 1 mL per day for 3 days): mild inflammation/necrosis
gross detectability of reactions at the local sites of infusion (site of infusion [1]; seen only at cannula tip in the subcutis upon microscopic evaluation): not detectable grossly at the surface of the skin
steady state plasma levels versus dose [4]: approximate linear relationship to the dose administered
two and three repeat administrations to the same site versus single 3-day administration (site of infusion [5]): did not differ significantly
